Experimental findings from ChEMBL document CHEMBL1201862, “PubChem BioAssay data set” (2004) are described below.

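96-well plates; 48 h exposure; 5 concentrations. Endpoints by linear interpolation between flanking doses. Not reached: highest tested concentration assigned. GI50 = concentration required for 50% inhibition of growth.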 Active and inactive are the calls of the source. Rule as the data show it: active = GI50 up to about 1.1 µM and inactive = higher. A value given as a limit tells only on which side of the number the result lay.

Among the test systems are HT-29; Malme-3M; HCT-15; SK-MEL-2; UACC-257; HOP-92; SF-268; ACHN; MDA-MB-231; DU-145; EKVX; A549; SK-MEL-5; LOX IMVI; UO-31; Hs-578T; SK-MEL-28; HCC 2998; SW-620; NCI-H460.
Test in all cases: NCI-60 cell line screen, 48 h

In the case of `C=C(Br)C/N=C/N(C)C`, the GI50 in the experiment on HT-29 is > 100 µM (inactive); in the experiment on Malme-3M it was > 100 µM (inactive); in the experiment on HCT-15, above 100 µM; with SK-MEL-2, > 100 µM (inactive); with UACC-257, > 100 µM (inactive); with HOP-92 it was > 100 µM (inactive). For the same compound, the GI50 in the experiment with SF-268, in the experiment with ACHN, in the experiment on MDA-MB-231, in the experiment with DU-145, in the experiment with EKVX and in the experiment on A549 was > 100 µM (inactive) each time. Further, the GI50 in the experiment on SK-MEL-5, with LOX IMVI, in the experiment with UO-31, in the experiment with Hs-578T and with SK-MEL-28 was > 100 µM (inactive) each time.
On to `COc1ccc(NC(=O)/C(CC2=Nc3ccc([N+](=O)[O-])cc3NC2O)=N\NC(=O)C[N+](C)(C)C)c(OC)c1` (centres undefined), for which the GI50 with HT-29 was > 100 µM (inactive); in the experiment on HCC 2998, > 100 µM (inactive); in the experiment on HCT-15 it was 45.9 µM; in the experiment with SK-MEL-2 it was > 100 µM (inactive); with UACC-257, > 100 µM (inactive); in the experiment with SW-620, 94.8 µM (inactive). Further, the GI50 with HOP-92 is 72.3 µM (inactive); in the experiment on NCI-H460 it was 40.5 µM (inactive); in the experiment on SF-268, > 100 µM (inactive); in the experiment with ACHN it was 67.5 µM (inactive); in the experiment on MDA-MB-231, 12.9 µM (inactive); in the experiment with DU-145 it was 47.3 µM (inactive). For the same compound, the GI50 in the experiment on EKVX is 54.7 µM (inactive); with A549 it was 40.5 µM (inactive); with SK-MEL-5 it was 22.2 µM (inactive); with LOX IMVI, 62.1 µM (inactive); in the experiment on UO-31, 34.3 µM (inactive); in the experiment with Hs-578T it was > 100 µM (inactive). In addition, in the experiment on SK-MEL-28, the GI50 is 97.9 µM (inactive).
On to `CCOCCOC(=O)C1CCC(=O)N1CN(C(C)=O)c1cc(OC)ccc1OC` (centres undefined), for which the GI50 is > 100 µM (inactive) in the experiment with HT-29; > 100 µM (inactive) in the experiment on Malme-3M; above 100 µM in the experiment with HCT-15; > 100 µM (inactive) with SK-MEL-2; > 100 µM (inactive) with UACC-257; > 100 µM (inactive) with SW-620. Besides, the GI50 in the experiment on HOP-92, with NCI-H460, in the experiment with SF-268, in the experiment on ACHN, in the experiment on MDA-MB-231 and with DU-145 was > 100 µM (inactive) in each case. Moreover, the GI50 in the experiment with EKVX, with A549, in the experiment on SK-MEL-5, in the experiment with LOX IMVI, in the experiment on UO-31 and in the experiment on Hs-578T was > 100 µM (inactive) in each case. Also, in the experiment with SK-MEL-28, the GI50 was > 100 µM (inactive).
Turning to `O=C(CSCC(=O)N/N=C\c1ccc(-c2ccccc2)cc1)N/N=C\c1ccc(-c2ccccc2)cc1`, the GI50 in the experiment with HT-29 was 23 µM (inactive); with Malme-3M, 27.2 µM (inactive); in the experiment on HCT-15, 26.1 µM; with SK-MEL-2 it was 16 µM (inactive); in the experiment on UACC-257, 35.7 µM (inactive); in the experiment on SW-620, 16.3 µM (inactive). Besides, the GI50 was 45.6 µM (inactive) in the experiment with HOP-92; 30.9 µM (inactive) with NCI-H460; 15.8 µM (inactive) in the experiment with SF-268; 23.9 µM (inactive) in the experiment on ACHN; 10.7 µM (inactive) in the experiment with MDA-MB-231; 33 µM (inactive) in the experiment with DU-145. Moreover, the GI50 in the experiment with EKVX was 45.2 µM (inactive); in the experiment with A549 it was 25.8 µM (inactive); in the experiment on SK-MEL-5, 39.9 µM (inactive); in the experiment with LOX IMVI it was 16.3 µM (inactive); in the experiment on UO-31, 28.5 µM (inactive); in the experiment with Hs-578T, 18.3 µM (inactive). Further, the GI50 with SK-MEL-28 is 29.6 µM (inactive).
`Cc1ccc(S(=O)(=O)n2cc(-c3cnc(N)c(Br)n3)c3ccccc32)cc1`: the GI50 in the experiment on HT-29 is 1.47 µM (inactive); in the experiment with HCC 2998, 3.29 µM (inactive); with HCT-15, 1.21 µM; in the experiment on SK-MEL-2, 10.8 µM (inactive); with UACC-257, 12.9 µM (inactive); in the experiment with SW-620, 1.04 µM (active). The GI50 is 3.94 µM (inactive) in the experiment with HOP-92; 3.18 µM (inactive) in the experiment on NCI-H460; 2.96 µM (inactive) in the experiment on SF-268; 5.46 µM (inactive) with ACHN; 2.54 µM (inactive) with MDA-MB-231; 1.31 µM (inactive) with DU-145. In addition, the GI50 in the experiment on EKVX is 3.48 µM (inactive); in the experiment with A549 it was 2.22 µM (inactive); in the experiment on SK-MEL-5 it was 2.91 µM (inactive); in the experiment with LOX IMVI, 2.94 µM (inactive); in the experiment with UO-31 it was 4.18 µM (inactive); with Hs-578T, 0.863 µM (active). For the same compound, the GI50 with SK-MEL-28 is 6.27 µM (inactive).
Take `CCCCC1(NN=C2CCCCC2)C(=O)N(c2ccccc2)N(c2ccccc2)C1=O`: the GI50 in the experiment with HT-29 is > 100 µM (inactive); in the experiment on HCC 2998, > 100 µM (inactive); in the experiment with HCT-15 it was above 100 µM; with UACC-257, > 100 µM (inactive); in the experiment with SW-620, > 100 µM (inactive); in the experiment with NCI-H460, > 100 µM (inactive). Moreover, the GI50 with SF-268, with ACHN, with MDA-MB-231, in the experiment on DU-145, with EKVX and in the experiment with A549 was > 100 µM (inactive) each time. The GI50 with SK-MEL-5, with UO-31, in the experiment on Hs-578T and in the experiment with SK-MEL-28 was > 100 µM (inactive) in each case.
In the case of `NNC(=O)C(O)C(O)C(=O)NN` (centres undefined), the GI50 is > 100 µM (inactive) in the experiment on HT-29; > 100 µM (inactive) with HCC 2998; > 100 µM (inactive) in the experiment with Malme-3M; above 100 µM in the experiment on HCT-15; > 100 µM (inactive) in the experiment on SK-MEL-2; > 100 µM (inactive) in the experiment on UACC-257. In addition, the GI50 in the experiment with SW-620, with SF-268, in the experiment with ACHN, with MDA-MB-231, in the experiment with DU-145 and with EKVX was > 100 µM (inactive) in each case. The GI50 was 66.4 µM (inactive) in the experiment on A549; > 100 µM (inactive) in the experiment with SK-MEL-5; 65.9 µM (inactive) with LOX IMVI; > 100 µM (inactive) with UO-31; > 100 µM (inactive) in the experiment with Hs-578T; > 100 µM (inactive) with SK-MEL-28.
As to `CC1=CC(=O)/C(=C/n2c(=S)[nH]c3ccc([N+](=O)[O-])cc32)C(=O)O1`, the GI50 in the experiment on HT-29 was > 100 µM (inactive); in the experiment on HCC 2998, > 100 µM (inactive); in the experiment on HCT-15 it was above 100 µM; with SK-MEL-2, > 100 µM (inactive); in the experiment with UACC-257, > 100 µM (inactive); in the experiment on SW-620, > 100 µM (inactive). Besides, the GI50 in the experiment on HOP-92, in the experiment with NCI-H460, in the experiment on SF-268, in the experiment on ACHN, with MDA-MB-231 and in the experiment with DU-145 was > 100 µM (inactive) throughout. In addition, the GI50 is > 50.1 µM (inactive) in the experiment on EKVX; > 100 µM (inactive) in the experiment on A549; > 100 µM (inactive) in the experiment with SK-MEL-5; > 100 µM (inactive) in the experiment on LOX IMVI; > 100 µM (inactive) in the experiment with UO-31; > 100 µM (inactive) in the experiment on Hs-578T. Moreover, the GI50 in the experiment with SK-MEL-28 is > 100 µM (inactive).
For the compound `COc1cc2ccnc3c2c(c1OC)N(C)C=C3`, the GI50 in the experiment with HCC 2998 was 16.4 µM (inactive); in the experiment with HCT-15, 26.9 µM; in the experiment on SK-MEL-2, 23.1 µM (inactive); with UACC-257, 34.4 µM (inactive); in the experiment on SW-620, 29.6 µM (inactive); in the experiment on NCI-H460, 14.6 µM (inactive). In addition, the GI50 with SF-268 is 35.2 µM (inactive); in the experiment on ACHN, 16.1 µM (inactive); with MDA-MB-231 it was 29.1 µM (inactive); in the experiment on DU-145 it was 34.5 µM (inactive); with EKVX, 23.2 µM (inactive); in the experiment with A549, 17.7 µM (inactive). Further, the GI50 in the experiment on LOX IMVI is 21.5 µM (inactive); with UO-31, 14.2 µM (inactive); in the experiment on Hs-578T, 29.3 µM (inactive); in the experiment with SK-MEL-28 it was 32.7 µM (inactive).
As to `CC(=O)O[C@@H]1C[C@@]2(C)[C@@H]3CC=C4[C@@H](C[C@H](O)C(=O)C4(C)C)[C@]3(C)C(=O)C[C@]2(C)[C@H]1[C@@](C)(O)C(=O)/C=C/C(C)(C)OC(C)=O`, the GI50 in the experiment on HT-29 was 1.08 µM (active); in the experiment on HCC 2998 it was 0.035 µM (active); in the experiment with HCT-15, 0.875 µM; with SK-MEL-2, 1.26 µM (inactive); in the experiment with UACC-257, 0.594 µM (active); with SW-620, 0.516 µM (active). Moreover, the GI50 in the experiment with HOP-92 is 0.912 µM (active); in the experiment on NCI-H460 it was 0.428 µM (active); in the experiment on SF-268, 1.01 µM (active); in the experiment on ACHN, 0.16 µM (active); in the experiment with MDA-MB-231, 2.78 µM (inactive); in the experiment on DU-145 it was 2.03 µM (inactive). Besides, the GI50 in the experiment on EKVX was 2.72 µM (inactive); in the experiment with A549 it was 0.881 µM (active); in the experiment on SK-MEL-5, 1.99 µM (inactive); with LOX IMVI it was 2.74 µM (inactive); in the experiment on UO-31, 0.298 µM (active); in the experiment with Hs-578T it was 4.71 µM (inactive). In the experiment on SK-MEL-28, the GI50 is 0.365 µM (active).
On to `CC1C2(C)OC(=N)C(C#N)(C(c3cccc([N+](=O)[O-])c3)O2)C1(C#N)C#N` (centres undefined), for which the GI50 is 26.4 µM (inactive) in the experiment with HT-29; 26.2 µM (inactive) in the experiment with Malme-3M; 19.9 µM (inactive) in the experiment on SK-MEL-2; 19.6 µM (inactive) with UACC-257; 12.7 µM (inactive) with SW-620; 13.6 µM (inactive) in the experiment with HOP-92. Besides, the GI50 was 13.5 µM (inactive) in the experiment on NCI-H460; 33 µM (inactive) with SF-268; 34 µM (inactive) with ACHN; 14.6 µM (inactive) in the experiment on MDA-MB-231; 28.4 µM (inactive) in the experiment on DU-145; 27.9 µM (inactive) in the experiment on EKVX. Also, the GI50 is > 100 µM (inactive) in the experiment with A549; 8 µM (inactive) in the experiment on SK-MEL-5; 16.9 µM (inactive) with LOX IMVI; 35.6 µM (inactive) in the experiment with UO-31; 27.1 µM (inactive) in the experiment with Hs-578T; 17.7 µM (inactive) with SK-MEL-28.
